From patent US20200281202A1 (priority 2017, published 2020)

What follows are molecules tested on Phytophthora infestans (assay: microbe, parasite or virus in culture). Details: 30 ppm in Rye Agar medium; seven days at 18° C.
Format: cell-based
In the case of Cn1nc(C(F)(F)F)cc1OCC(=O)N1CCC(c2nc(C3=NOC(c4c(Cl)cccc4Cl)C3)cs2)CC1 (centres unmarked) [Compound 2], the “control (radial growth) compared to the untreated check” value is reported as 70%. In the case of O=C(COc1ncc(C(F)(F)F)cc1Br)N1CCC(c2nc(C3=NOC(c4c(F)cccc4F)C3)cs2)CC1 (centres unmarked) [Compound 53], the “control (radial growth) compared to the untreated check” value is reported as 70%. In the case of Cn1nc(OCC(=O)N2CCC(c3nc(C4=NOC(c5c(Cl)cccc5OS(C)(=O)=O)C4)cs3)CC2)cc1C(F)(F)F (centres unmarked) [Compound 19], the “control (radial growth) compared to the untreated check” value is reported as 70%.

Same assay, conditions: Phytophthora infestans, 168 h, read-out: control (radial growth) compared to the untreated check
Molecule O=C(COc1ncc(C(F)(F)F)cc1Br)N1CCC(c2nc(C3=NOC(c4c(Cl)cccc4Cl)C3)cs2)CC1 (centres unmarked) [Compound 51, 2-((3-bromo-5-(trifluoromethyl)pyridin-2-yl)oxy)-1-(4-(4-(5-(2,6-dichlorophenyl)-4,5-dihydroisoxazol-3-yl)thiazol-2-yl)piperidin-1-yl)ethan-1-one] has an inhibition of growth at 30 ppm of 70%. Cc1cnc(OCC(=O)N2CCC(c3nc(C4=NOC(c5c(F)cccc5F)C4)cs3)CC2)c(C(F)(F)F)c1 (centres unmarked) [Compound 88, 1-(4-(4-(5-(2,6-difluorophenyl)-4,5-dihydroisoxazol-3-yl)thiazol-2-yl)piperidin-1-yl)-2-((5-methyl-3-(trifluoromethyl)pyridin-2-yl)oxy)ethan-1-one] was tested, and the inhibition of growth at 30 ppm was 70%. O=C(COc1ncc(C(F)(F)F)cc1Br)N1CCC(c2nc(C3=NOC(c4c(Cl)cc(Cl)cc4Cl)C3)cs2)CC1 (centres unmarked) [Compound 54, 2-((3-bromo-5-(trifluoromethyl)pyridin-2-yl)oxy)-1-(4-(4-(5-(2,4,6-trichlorophenyl)-4,5-dihydroisoxazol-3-yl)thiazol-2-yl)piperidin-1-yl)ethan-1-one] gave an inhibition of growth at 30 ppm of 70%. Cn1nc(OCC(=O)N2CCC(c3nc(C4=NOC(c5c(F)cccc5F)C4)cs3)CC2)cc1C(F)(F)F (centres unmarked) [Compound 20, 1-(4-(4-(5-(2,6-difluorophenyl)-4,5-dihydroisoxazol-3-yl)thiazol-2-yl)piperidin-1-yl)-2-((1-methyl-5-(trifluoromethyl)-1H-pyrazol-3-yl)oxy) ethan-1-one] was tested, and the inhibition of growth at 30 ppm was 70%. O=C(COc1ncccc1C(F)(F)F)N1CCC(c2nc(C3OCc4ccccc4CO3)cs2)CC1 [Compound 59, 1-(4-(4-(1,5-dihydrobenzo[e][1,3]dioxepin-3-yl)thiazol-2-yl)piperidin-1-yl)-2-((3-(trifluoromethyl)pyridin-2-yl)oxy)ethan-1-one] showed an inhibition of growth at 30 ppm of 70%. Cn1nc(C(F)(F)F)cc1OCC(=O)N1CCC(c2nc(C3=NOC(c4c(F)cccc4F)C3)cs2)CC1 (centres unmarked) [Compound 3, 1-(4-(4-(5-(2,6-difluorophenyl)-4,5-dihydroisoxazol-3-yl)thiazol-2-yl)piperidin-1-yl)-2-((1-methyl-3-(trifluoromethyl)-1H-pyrazol-5-yl)oxy) ethan-1-one] showed an inhibition of growth at 30 ppm of 70%. Cc1cccnc1OCC(=O)N1CCC(c2nc(C3=NOC(c4c(Cl)cccc4OS(C)(=O)=O)C3)cs2)CC1 (centres unmarked) [Compound 78, 3-chloro-2-(3-(2-(1-(2-((3-methylpyridin-2-yl)oxy)acetyl)piperidin-4-yl)thiazol-4-yl)-4,5-dihydroisoxazol-5-yl)phenyl methanesulfonate] gave an inhibition of growth at 30 ppm of 70%. For O=C(COc1ncccc1C(F)F)N1CCC(c2nc(C3=NOC(c4c(Cl)cccc4Cl)C3)cs2)CC1 (centres unmarked) [Compound 90], the inhibition of growth at 30 ppm was 70%. With Cn1nc(OCC(=O)N2CCC(c3nc(C4=NOC(c5c(F)cccc5F)C4)cs3)CC2)cc1C(F)F (centres unmarked) [Compound 9] the inhibition of growth at 30 ppm was 70%. Cc1ccc(C(F)(F)F)c(OCC(=O)N2CCC(c3nc(C4OCc5cccc(OS(C)(=O)=O)c5CO4)cs3)CC2)n1 (centres unmarked) [Compound 92, 3-(2-(1-(2-((6-methyl-3-(trifluoromethyl)pyridin-2-yl)oxy)acetyl)piperidin-4-yl)thiazol-4-yl)-1,5-dihydrobenzo[e][1,3]dioxepin-6-yl methanesulfonate] was tested, and the inhibition of growth at 30 ppm was 70%. With O=C(COc1cccc(C(F)(F)F)n1)N1CCC(c2nc(C3=NOC(c4c(F)cccc4F)C3)cs2)CC1 (centres unmarked) [Compound 72, 1-(4-(4-(5-(2,6-difluorophenyl)-4,5-dihydroisoxazol-3-yl)thiazol-2-yl)piperidin-1-yl)-2-((6-(trifluoromethyl)pyridin-2-yl)oxy)ethan-1-one] the inhibition of growth at 30 ppm was 70%. CS(=O)(=O)Oc1cccc2c1COC(c1csc(C3CCN(C(=O)COc4ncccc4C(F)(F)F)CC3)n1)OC2 (centres unmarked) [Compound 91, 3-(2-(1-(2-((3-(trifluoromethyl)pyridin-2-yl)oxy)acetyl)piperidin-4-yl)thiazol-4-yl)-1,5-dihydrobenzo[e][1,3]dioxepin-6-yl methanesulfonate] gave an inhibition of growth at 30 ppm of 70%. O=C(CSc1ncc(C(F)(F)F)cc1Cl)N1CCC(c2nc(C3=NOC(c4c(F)cccc4F)C3)cs2)CC1 (centres unmarked) [Compound 65, 2-((3-chloro-5-(trifluoromethyl)pyridin-2-yl)thio)-1-(4-(4-(5-(2,6-difluorophenyl)-4,5-dihydroisoxazol-3-yl)thiazol-2-yl)piperidin-1-yl)ethan-1-one] showed an inhibition of growth at 30 ppm of 70%. With Cn1nc(C(F)(F)F)cc1OCC(=O)N1CCC(c2nc(C3=NOC(c4c(Cl)cccc4OS(C)(=O)=O)C3)cs2)CC1 (centres unmarked) [Compound 4, 3-chloro-2-(3-(2-(1-(2-((1-methyl-3-(trifluoromethyl)-1H-pyrazol-5-yl)oxy)acetyl)piperidin-4-yl)thiazol-4-yl)-4,5-dihydroisoxazol-5-yl)phenyl methanesulfonate] the inhibition of growth at 30 ppm was 70%. Cc1cnc(OCC(=O)N2CCC(c3nc(C4=NOC(c5c(Cl)cccc5Cl)C4)cs3)CC2)c(C(F)(F)F)c1 (centres unmarked) [Compound 84, 1-(4-(4-(5-(2,6-dichlorophenyl)-4,5-dihydroisoxazol-3-yl)thiazol-2-yl)piperidin-1-yl)-2-((5-methyl-3-(trifluoromethyl)pyridin-2-yl)oxy)ethan-1-one] gave an inhibition of growth at 30 ppm of 70%. Work on CN(C)C(N(CC(=O)N1CCC(c2nc(C3=NOC(c4c(F)cccc4F)C3)cs2)CC1)c1ccc(C(F)(F)F)cn1)=[N+](C)C (centres unmarked) [Compound 69] yielded an inhibition of growth at 30 ppm of 70%. CS(=O)(=O)Oc1cccc(Cl)c1C1CC(c2csc(C3CCN(C(=O)COc4cc(C(F)(F)F)ccn4)CC3)n2)=NO1 (centres unmarked) [Compound 46, 3-chloro-2-(3-(2-(1-(2-((4-(trifluoromethyl)pyridin-2-yl)oxy)acetyl)piperidin-4-yl)thiazol-4-yl)-4,5-dihydroisoxazol-5-yl)phenyl methanesulfonate] was tested, and the inhibition of growth at 30 ppm was 70%. CS(=O)(=O)Oc1cccc(Cl)c1C1CC(c2csc(C3CCN(C(=O)COc4ncccc4C(F)F)CC3)n2)=NO1 (centres unmarked) [Compound 89, 3-chloro-2-(3-(2-(1-(2-((3-(difluoromethyl)pyridin-2-yl)oxy)acetyl)piperidin-4-yl)thiazol-4-yl)-4,5-dihydroisoxazol-5-yl)phenyl methanesulfonate] was tested, and the inhibition of growth at 30 ppm was 70%. O=C(CNc1ncccc1C(F)(F)F)N1CCC(c2nc(C3=NOC(c4c(Cl)cccc4Cl)C3)cs2)CC1 (centres unmarked) [Compound 82, 1-(4-(4-(5-(2,6-dichlorophenyl)-4,5-dihydroisoxazol-3-yl)thiazol-2-yl)piperidin-1-yl)-2-((3-(trifluoromethyl)pyridin-2-yl)amino)ethan-1-one] gave an inhibition of growth at 30 ppm of 70%. In the case of Cn1ccc(OCC(=O)N2CCC(c3nc(C4=NOC(c5c(F)cccc5F)C4)cs3)CC2)n1 (centres unmarked) [Compound 1, 1-(4-(4-(5-(2,6-difluorophenyl)-4,5-dihydroisoxazol-3-yl)thiazol-2-yl)piperidin-1-yl)-2-((1-methyl-1H-pyrazol-3-yl)oxy)ethan-1-one], the inhibition of growth at 30 ppm is reported as 70%.
